From ChEMBL document CHEMBL1201862, “PubChem BioAssay data set” (2004)
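These data come from cells grown in 96-well plates and exposed to compound for 48 hours at five concentrations. The concentration for 50% growth inhibition is given as GI50.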 Calls of active or inactive are those of the source. Cut-off read from the data, not from the text of the source: active = GI50 up to about 1.1 µM and inactive = higher. Square brackets hold non-standard residues; d marks the D form. Peptide text beside a SMILES is read from it. 2Nal = N[CH](Cc1ccc2ccccc2c1)C(=O)O

What was measured:
Assay in all cases: growth of human tumour cells (NCI), 48 h
[1] = tested on: 786-0
[2] = tested on: A498
[3] = tested on: CAKI-1
[4] = tested on: HCC 2998
[5] = tested on: HCT-116
[6] = tested on: HT-29
[7] = tested on: IGROV-1
[8] = tested on: MCF7
[9] = tested on: NCI-H460
[10] = tested on: NCI-H522
[11] = tested on: NCI/ADR-RES
[12] = tested on: OVCAR-4
[13] = tested on: OVCAR-5
[14] = tested on: OVCAR-8
[15] = tested on: RPMI-8226
[16] = tested on: SF-295
[17] = tested on: SK-MEL-5
[18] = tested on: SNB-19
[19] = tested on: U-251
[20] = tested on: UACC-257

Structure (SMILES) | GI50 [1] | GI50 [2] | GI50 [3] | GI50 [4] | GI50 [5] | GI50 [6] | GI50 [7] | GI50 [8] | GI50 [9] | GI50 [10] | GI50 [11] | GI50 [12] | GI50 [13] | GI50 [14] | GI50 [15] | GI50 [16] | GI50 [17] | GI50 [18] | GI50 [19] | GI50 [20]
Cc1c(C)n(-c2ccccc2)c2nc(S(C)(=O)=O)nc(S(C)(=O)=O)c12 | 1.28 µM (inactive) | 14.1 µM (inactive) | 0.171 µM (active) | 23.3 µM (inactive) | 1.53 µM (inactive) | 1.92 µM (inactive) | 4.72 µM (inactive) | 1.25 µM (inactive) | 16.9 µM (inactive) | 1.75 µM (inactive) | 23.1 µM (inactive) | 1.65 µM (inactive) | 1.82 µM (inactive) | 2.19 µM (inactive) | 2.65 µM (inactive) | 16.9 µM (inactive) | 12.7 µM (inactive) | 3.3 µM (inactive) | 5.9 µM (inactive) | 1.64 µM (inactive)
CC1=NN=C(N)N/C1=C/C(Sc1ccc(Cl)cc1)c1cccs1 (stereo not given) | 18.5 µM (inactive) | 16.4 µM (inactive) | 15.7 µM (inactive) | 12.4 µM (inactive) | 13.6 µM (inactive) | 12.3 µM (inactive) | 11.4 µM (inactive) | 6.53 µM (inactive) | 13.6 µM (inactive) | 4.65 µM (inactive) | 18.5 µM (inactive) | 16.5 µM (inactive) | 18.5 µM (inactive) | 16 µM (inactive) | 12.2 µM (inactive) | 11.7 µM (inactive) | 11.5 µM (inactive) | 16.7 µM (inactive) | 24.5 µM (inactive) | 18.3 µM (inactive)
O=C1Sc2ccccc2NC1=C(C(=O)c1ccccc1)C(=O)c1ccccc1 | 26.2 µM (inactive) | 34.8 µM (inactive) | 56.2 µM (inactive) | 19.4 µM (inactive) | 18.7 µM (inactive) | 22.5 µM (inactive) | 38.4 µM (inactive) | 2.44 µM (inactive) | 9.95 µM (inactive) | 18.4 µM (inactive) | 22.3 µM (inactive) | 69.8 µM (inactive) | 47.1 µM (inactive) | 22.9 µM (inactive) | 12.6 µM (inactive) | 20.6 µM (inactive) | 16.8 µM (inactive) | 33 µM (inactive) | 16 µM (inactive) | 17.5 µM (inactive)
CC(C)C(NC(=O)C(CCCCN)NC(=O)C(Cc1c[nH]c2ccccc12)NC(=O)C(Cc1ccc(O)cc1)NC(=O)C(CS)NC(=O)C(N)Cc1ccc2ccccc2c1)C(=O)NC(CS)C(=O)NC(C(N)=O)C(C)O (stereo not given) (H-[2Nal]CYWKVCT-NH2; configuration not given here) | > 12.5 µM (inactive) | > 12.5 µM (inactive) | > 12.5 µM (inactive) | > 12.5 µM (inactive) | > 12.5 µM (inactive) | > 12.5 µM (inactive) | > 12.5 µM (inactive) | > 12.5 µM (inactive) | > 12.5 µM (inactive) | > 12.5 µM (inactive) | > 12.5 µM (inactive) | > 12.5 µM (inactive) | > 12.5 µM (inactive) | > 12.5 µM (inactive) | > 12.5 µM (inactive) | > 12.5 µM (inactive) | > 12.5 µM (inactive) | > 100 µM (inactive) | > 12.5 µM (inactive) | > 12.5 µM (inactive)
C/C1=C\CC/C(C)=C/C=C(/C(C)C)CC/C(C(=O)O)=C/CC1 [CROTOCEMBRANEIC ACID] | 55.7 µM (inactive) | 21 µM (inactive) | 49.9 µM (inactive) | 37.6 µM (inactive) | 40.3 µM (inactive) | 46.7 µM (inactive) | 61.1 µM (inactive) | 34.2 µM (inactive) | 34.8 µM (inactive) | 38.1 µM (inactive) | 44.8 µM (inactive) | 55.1 µM (inactive) | > 100 µM (inactive) | 66.2 µM (inactive) | 22.8 µM (inactive) | 26.7 µM (inactive) | 36 µM (inactive) | 53.3 µM (inactive) | 35.1 µM (inactive) | 82.8 µM (inactive)
